Earlier results as cited in patent publication US20230131804A1, “FARNESOID X RECEPTOR AGONISTS FOR THE TREATMENT OF DISEASE” (Metacrine, Inc., priority 2020, published 2023).
“Also recorded” adds a separate entry of the source.

Conditions: published clinical studies, higher administered doses; cited from earlier work

## CC[C@H]1[C@@H](O)[C@@H]2[C@H](CC[C@]3(C)[C@@H]([C@H](C)CCC(=O)O)CC[C@@H]23)[C@@]2(C)CC[C@@H](O)C[C@@H]12 [OCA, Obeticholic acid]
  adverse side effects: pruritis, increased LDL cholesterol and liver toxicity; also recorded: adverse effects of increased LDL cholesterol and liver toxicity
